Results from patent US20240327382A1 (ALMAC DISCOVERY LIMITED, priority 2021, published 2024).

What follows are compounds tested against T1, Full-length USP19 (Homo sapiens, UniProt O94966) (assay: USP19 fluorescence polarisation (FP) assay, Ubiquitin-Lys-TAMRA substrate). Settings: average of at least two duplicate experiments.
T1 construct: Full-length USP19 was purchased from Boston Biochem (E-576); purchased Boston Biochem E-576
T1 sequence (O94966 1-1318): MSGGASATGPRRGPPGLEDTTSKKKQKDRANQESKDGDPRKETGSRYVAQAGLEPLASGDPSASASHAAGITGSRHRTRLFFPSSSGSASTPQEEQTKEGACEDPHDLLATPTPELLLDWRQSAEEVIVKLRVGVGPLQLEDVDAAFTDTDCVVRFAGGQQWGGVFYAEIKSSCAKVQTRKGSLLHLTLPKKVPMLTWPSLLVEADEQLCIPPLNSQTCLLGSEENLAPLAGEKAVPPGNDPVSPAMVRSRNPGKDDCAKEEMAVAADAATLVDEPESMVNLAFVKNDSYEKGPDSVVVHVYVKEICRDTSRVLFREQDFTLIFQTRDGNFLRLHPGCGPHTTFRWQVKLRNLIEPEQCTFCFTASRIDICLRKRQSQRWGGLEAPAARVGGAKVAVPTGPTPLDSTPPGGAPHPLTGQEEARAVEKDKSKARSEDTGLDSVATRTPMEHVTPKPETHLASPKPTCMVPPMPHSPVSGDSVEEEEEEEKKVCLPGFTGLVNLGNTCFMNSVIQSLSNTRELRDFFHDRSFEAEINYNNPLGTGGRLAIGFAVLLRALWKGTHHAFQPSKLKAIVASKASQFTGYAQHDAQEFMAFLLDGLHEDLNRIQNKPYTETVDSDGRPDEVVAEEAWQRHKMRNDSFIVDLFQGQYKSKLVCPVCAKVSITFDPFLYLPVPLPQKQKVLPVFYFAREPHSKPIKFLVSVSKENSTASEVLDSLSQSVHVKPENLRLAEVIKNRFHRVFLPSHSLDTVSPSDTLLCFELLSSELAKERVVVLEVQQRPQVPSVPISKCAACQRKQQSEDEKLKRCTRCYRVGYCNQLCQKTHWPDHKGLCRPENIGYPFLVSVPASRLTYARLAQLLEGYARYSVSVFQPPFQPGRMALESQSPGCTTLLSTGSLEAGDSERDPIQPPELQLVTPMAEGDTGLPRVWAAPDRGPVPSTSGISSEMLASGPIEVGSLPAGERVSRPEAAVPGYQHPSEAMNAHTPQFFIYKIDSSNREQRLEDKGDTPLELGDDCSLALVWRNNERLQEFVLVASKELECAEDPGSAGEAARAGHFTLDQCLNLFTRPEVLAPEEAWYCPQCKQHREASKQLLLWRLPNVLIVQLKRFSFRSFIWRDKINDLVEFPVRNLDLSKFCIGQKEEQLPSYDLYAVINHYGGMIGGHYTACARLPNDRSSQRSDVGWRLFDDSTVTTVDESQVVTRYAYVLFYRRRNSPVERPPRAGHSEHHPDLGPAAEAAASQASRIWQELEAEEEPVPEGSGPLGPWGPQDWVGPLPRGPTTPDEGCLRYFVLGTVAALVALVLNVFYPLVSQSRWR
Format: biochemical
Protocol: USP19 activity was determined in a fluorescence polarisation (FP) homogeneous assay using the isopeptide Ubiquitin-Lys-TAMRA substrate (either AUB-101, Almac Sciences Scotland Limited, or U-558, Boston Biochem, both of which gave identical results). Full-length USP19 was purchased from Boston Biochem (E-576). Unless otherwise stated, all other reagents were purchased from Sigma. Enzymatic reactions were conducted in black flat bottom polystyrene 384-well plates (Nunc) and 30 μL total volume. USP19 (2.5 nM, 10 μL) was incubated in assay buffer (50 mM HEPES (pH 7.4), 150 mM NaCl, 5 mM DTT, 0.05% BSA (w/v), 0.05% CHAPS) in the presence or absence of inhibitor (10 μL). Inhibitors were stored as 10 mM DMSO stocks in an inert environment (low humidity, dark, low oxygen, rt) using the StoragePod® system (Roylan Developments) and serial dilutions were prepared in buffer just prior to the assay (from 200 μM to 2 μM, 8-18 data point curve). Following incubation at RT for 30 min, the enzymatic reactions were initiated by dispensing the Ub substrate (500 nM, 10 μL). FP was measured every 15 min over a period of 90 min (within the linear range of the assay) using a Synergy 4 plate reader (BioTek) exciting at 530 nm and measuring the amount of parallel and perpendicular light at 575 nm. The FP signal was subsequently normalised to the no compound control. Data were plotted and fitted, and the concentrations resulting in 50% inhibition (IC50) were calculated using the non-linear regression curve fitting model using GraphPad (Prism). IC50 values for the inhibitors of the invention are compiled in Tables 1 and 3 and represent the average of at least two duplicate experiments.

| IC50 [nM] | Structure (SMILES) |
| --- | --- |
| < 10 | CN[C@@H]1CCN(C(=O)N2CC[C@@H](Cn3cnc(-c4ccccc4F)cc3=O)C3(CCCC3)C2)[C@H](c2cc(F)ccc2F)C1 [Example 145, 3-(((R)-7-((2S,4R)-2-(2,5-Difluorophenyl)-4-(methylamino)piperidine-1-carbonyl)-7-azaspiro[4.5]decan-10-yl)methyl)-6-(2-fluorophenyl)pyrimidin-4(3H)-one] |
| 1000 to 20000 | C[C@H](CC(F)(F)F)C(=O)N1CCC(Cn2ccc(-c3ccccc3)cc2=O)C2(CCCC2)C1 (stereo partly drawn) [Example 5, 4-Phenyl-1-((7-((R)-4,4,4-trifluoro-2-methylbutanoyl)-7-azaspiro[4.5]decan-10-yl)methyl)pyridin-2(1H)-one] |
| < 10 | CN[C@@H]1CCN(C(=O)N2CC[C@@H](Cn3cnc4ccc(F)cc4c3=O)C3(CCCC3)C2)[C@H](c2cc(F)ccc2F)C1 [Example 125, 3-(((R)-7-((2S,4R)-2-(2,5-Difluorophenyl)-4-(methylamino)piperidine-1-carbonyl)-7-azaspiro[4.5]decan-10-yl)methyl)-6-fluoroquinazolin-4(3H)-one] |
| < 10 | CN[C@@H]1CCN(C(=O)N2CC[C@@H](Cn3ccc(-c4ccccc4C)cc3=O)C3(CCCC3)C2)[C@H](c2ccccc2)C1 [Example 54, 1-(((R)-7-((2S,4R)-4-(Methylamino)-2-phenylpiperidine-1-carbonyl)-7-azaspiro[4.5]decan-10-yl)methyl)-4-(o-tolyl)pyridin-2(1H)-one] |
| 10 to 100 | CN[C@@H]1CCN(C(=O)N2CC[C@@H](Cn3ncccc3=O)C3(CCCC3)C2)[C@H](c2ccc(F)cc2F)C1 [Example 129, 2-(((R)-7-((2S,4R)-2-(2,4-Difluorophenyl)-4-(methylamino)piperidine-1-carbonyl)-7-azaspiro[4.5]decan-10-yl)methyl)pyridazin-3(2H)-one] |
| < 10 | N[C@@H]1CCN(C(=O)N2CC[C@@H](Cn3ccc(-c4ccccc4F)cc3=O)C3(CCCC3)C2)[C@H](c2ccccc2)C1 [Example 61, 1-(((R)-7-((2S,4R)-4-Amino-2-phenylpiperidine-1-carbonyl)-7-azaspiro[4.5]decan-10-yl)methyl)-4-(2-fluorophenyl)pyridin-2(1H)-one] |
| 10 to 100 | O=C(N[C@@H]1CCN(C(=O)N2CC[C@@H](Cn3cnc(-c4ccccc4)cc3=O)C3(CCCC3)C2)[C@H](c2cc(F)ccc2F)C1)c1ccccn1 [Example 165, N-((2S,4R)-2-(2,5-Difluorophenyl)-1-((R)-10-((6-oxo-4-phenylpyrimidin-1(6H)-yl)methyl)-7-azaspiro[4.5]decane-7-carbonyl)piperidin-4-yl)picolinamide] |
| < 10 | COc1ccccc1-c1cc(=O)n(C[C@]2(OC)CCN(C(=O)N3CCNC[C@H]3c3cc(F)ccc3F)CC23CCCC3)cn1 [Example 187, 3-(((S)-7-((R)-2-(2,5-Difluorophenyl)piperazine-1-carbonyl)-10-methoxy-7-azaspiro[4.5]decan-10-yl)methyl)-6-(2-methoxyphenyl)pyrimidin-4(3H)-one] |
| < 10 | COC(=O)CN[C@@H]1CCN(C(=O)N2CC[C@@H](Cn3cnc(-c4ccccc4)cc3=O)C3(CCCC3)C2)[C@H](c2ccccc2)C1 [Example 105, Methyl ((2S,4R)-1-((R)-10-((6-oxo-4-phenylpyrimidin-1(6H)-yl)methyl)-7-azaspiro[4.5]decane-7-carbonyl)-2-phenylpiperidin-4-yl)glycinate] |
| < 10 | Cc1ccccc1-c1cc(=O)n(C[C@@H]2CCN(C(=O)N3CC[C@@H](N)C[C@H]3c3cccc(F)c3)CC23CCCC3)cn1 [Example 81, 3-(((R)-7-((2S,4R)-4-Amino-2-(3-fluorophenyl)piperidine-1-carbonyl)-7-azaspiro[4.5]decan-10-yl)methyl)-6-(0-tolyl)pyrimidin-4(3H)-one] |
| 10 to 100 | N[C@@H]1CCN(C(=O)N2CCC(Cn3cnc(C(F)(F)F)cc3=O)C3(CCCC3)C2)[C@H](c2ccccc2)C1 (stereo partly drawn) [Example 34, 3-((7-((2S,4R)-4-Amino-2-phenylpiperidine-1-carbonyl)-7-azaspiro[4.5]decan-10-yl)methyl)-6-(trifluoromethyl) pyrimidin-4(3H)-one] |
| 10 to 100 | CN(C)[C@@H]1CCN(C(=O)N2CC[C@@H](Cn3ccc(-c4ccccc4)cc3=O)C3(CCCC3)C2)[C@H](c2ccccc2)C1 [Example 46, 1-(((R)-7-((2S,4R)-4-(Dimethylamino)-2-phenylpiperidine-1-carbonyl)-7-azaspiro[4.5]decan-10-yl)methyl)-4-phenylpyridin-2(1H)-one] |
| 100 to 1000 | O=C(NCc1ccccc1)N1CCC(Cn2cnc(-c3ccccc3)cc2=O)C2(CCCC2)C1 (centres unmarked) [Example 10, N-Benzyl-10-((6-oxo-4-phenylpyrimidin-1(6H)-yl)methyl)-7-azaspiro[4.5]decane-7-carboxamide] |
| 10 to 100 | O=C(N1CC[C@@H](Cn2ccc(-c3ccccc3)cc2=O)C2(CCCC2)C1)N1CC[C@@H](O)C[C@H]1c1ccccc1 [Example 44, 1-(((R)-7-((2S,4R)-4-Hydroxy-2-phenylpiperidine-1-carbonyl)-7-azaspiro[4.5]decan-10-yl)methyl)-4-phenylpyridin-2(1H)-one] |
| 1000 to 20000 | COC(=O)[C@@H]1CCN(C(=O)N2CC[C@@H](Cn3cnc(-c4ccccc4)cc3=O)C3(CCCC3)C2)[C@H](c2ccccc2)C1 [Example 76] |
| 10 to 100 | N[C@@H]1CCN(C(=O)N2CCC(Cn3ccc(-c4ccccc4)cc3=O)CC2)[C@H](c2ccccc2)C1 [Example 17, 1-((1-((2S,4R)-4-Amino-2-phenylpiperidine-1-carbonyl)piperidin-4-yl)methyl)-4-phenylpyridin-2(1H)-one] |
| < 10 | CN[C@@H]1CCN(C(=O)N2CC[C@@H](Cn3ccc(-c4ccccc4)cc3=O)C3(CCCC3)C2)[C@H](c2ccccc2)C1 [Example 48, 1-(((R)-7-((2S,4R)-4-(Methylamino)-2-phenylpiperidine-1-carbonyl)-7-azaspiro[4.5]decan-10-yl)methyl)-4-phenylpyridin-2(1H)-one] |
| 10 to 100 | O=C(N1CC[C@@H](Cn2cnc(C(F)F)cc2=O)C2(CCCC2)C1)N1CC[C@@H](NC2CC(F)(F)C2)C[C@H]1c1cc(F)ccc1F [Example 183, 3-(((R)-7-((2S,4R)-4-((3,3-Difluorocyclobutyl)amino)-2-(2,5-difluorophenyl)piperidine-1-carbonyl)-7-azaspiro[4.5]decan-10-yl)methyl)-6-(difluoromethyl)pyrimidin-4(3H)-one] |
| < 10 | N[C@@H]1CCN(C(=O)N2CC[C@@H](Cn3cnc4ccc(F)cc4c3=O)C3(CCCC3)C2)[C@H](c2ccccc2)C1 [Example 100, 3-(((R)-7-((2S,4R)-4-Amino-2-phenylpiperidine-1-carbonyl)-7-azaspiro[4.5]decan-10-yl)methyl)-6-fluoroquinazolin-4(3H)-one] |
| < 10 | CN[C@@H]1CCN(C(=O)N2CC[C@@H](Cn3ccc(Cl)cc3=O)C3(CCCC3)C2)[C@H](c2cc(F)ccc2F)C1 [Example 123, 4-Chloro-1-(((R)-7-((2S,4R)-2-(2,5-difluorophenyl)-4-(methylamino)piperidine-1-carbonyl)-7-azaspiro[4.5]decan-10-yl)methyl)pyridin-2(1H)-one] |
